# From ChEMBL document CHEMBL1128960, “Phosphonic acid and phosphinic acid tripeptides as inhibitors of glutathionylspermidine synthetase” (Bioorg Med Chem Lett, 1996)
# pKi: −log10 of the molar value.
# Target: T1, Glutathionylspermidine synthase (Crithidia fasciculata) (UniProt P90518)
# T1 sequence (whole entry): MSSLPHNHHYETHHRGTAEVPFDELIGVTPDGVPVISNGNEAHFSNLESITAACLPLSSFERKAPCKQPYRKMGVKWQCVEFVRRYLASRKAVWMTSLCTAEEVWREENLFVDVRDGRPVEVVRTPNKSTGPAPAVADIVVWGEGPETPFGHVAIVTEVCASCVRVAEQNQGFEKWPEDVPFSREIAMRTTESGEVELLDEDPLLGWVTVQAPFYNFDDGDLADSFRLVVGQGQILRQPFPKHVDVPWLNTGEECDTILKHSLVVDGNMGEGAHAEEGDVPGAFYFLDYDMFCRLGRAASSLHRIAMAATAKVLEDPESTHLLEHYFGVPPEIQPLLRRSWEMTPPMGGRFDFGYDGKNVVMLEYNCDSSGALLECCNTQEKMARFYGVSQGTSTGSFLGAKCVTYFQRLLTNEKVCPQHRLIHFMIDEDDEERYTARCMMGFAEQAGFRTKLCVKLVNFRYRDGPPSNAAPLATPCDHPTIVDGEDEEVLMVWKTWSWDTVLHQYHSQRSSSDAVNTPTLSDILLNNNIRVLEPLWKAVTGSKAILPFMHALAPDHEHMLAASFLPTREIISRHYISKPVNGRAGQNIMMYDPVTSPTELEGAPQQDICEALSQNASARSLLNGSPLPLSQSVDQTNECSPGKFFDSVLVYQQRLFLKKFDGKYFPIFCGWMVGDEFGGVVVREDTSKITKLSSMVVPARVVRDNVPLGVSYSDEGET
# Experiment: Compound was tested for inhibitory activity against glutathionylspermidine synthetase in the presence of 5 mM glutathione and spermidine.
row,SMILES,inhibition [%]
1,CC(C)C[C@H](NC(=O)[C@@H](N)CCC(=O)O)C(=O)NCP(=O)(Oc1ccccc1)Oc1ccccc1,76
2,CC(C)[C@H](NC(=O)[C@@H](N)CCC(=O)O)C(=O)NCP(=O)(O)CCC(N)=O,11
3,CC(C)[C@H](NC(=O)[C@@H](N)CCC(=O)O)C(=O)NC[PH](=O)O,50
4,CC(C)[C@H](NC(=O)[C@@H](N)CCC(=O)O)C(=O)NCC(N)CP(=O)(O)O (some centres undefined),10
5,COC(=O)CCP(=O)(O)CNC(=O)[C@@H](NC(=O)[C@@H](N)CCC(=O)O)C(C)C,71
6,CC(C)[C@H](NC(=O)[C@@H](N)CCC(=O)O)C(=O)NC(C)P(C)(=O)O (some centres undefined),14
7,CC(C)[C@H](NC(=O)[C@@H](N)CCC(=O)O)C(=O)NCP(C)(=O)O,26

# The remaining lines, values ahead:
row,inhibition [%],SMILES
1,86,CC(C)C[C@H](NC(=O)[C@@H](N)CCC(=O)O)C(=O)NCP(=O)(O)O
2,24,CC(C)C[C@H](NC(=O)[C@@H](N)CCC(=O)O)C(=O)NCCCP(=O)(O)O
3,62,CC(C)C[C@H](NC(=O)[C@@H](N)CCC(=O)O)C(=O)NCC(=O)CP(=O)(O)O
4,78,CC(C)[C@H](NC(=O)[C@@H](N)CCC(=O)O)C(=O)NCP(=O)(O)O

# Target: T1, Glutathionylspermidine synthase (Crithidia fasciculata)
# Experiment: Compound was tested for inhibitory activity against glutathionylspermidine synthetase in the presence of 5 mM glutathione and spermidine; Not inhibition
row,SMILES,inhibition
1,CC(C)[C@H](NC(=O)[C@@H](N)CCC(=O)O)C(=O)NCC(=O)CP(=O)(O)O,No inhibition
2,CC(C)[C@H](NC(=O)[C@@H](N)CCC(=O)O)C(=O)NCCCP(=O)(O)O,No inhibition
3,CC(C)[C@H](NC(=O)[C@@H](N)CCC(=O)O)C(=O)NCC(O)CP(=O)(O)O (some centres undefined),No inhibition

# Second part, the compound after the results:
row,inhibition,SMILES
1,No inhibition,CC(C)[C@H](NC(=O)[C@@H](N)CCC(=O)O)C(=O)NCCP(=O)(O)O
2,No inhibition,CC(C)C[C@H](NC(=O)[C@@H](N)CCC(=O)O)C(=O)Nc1ccc(CP(=O)(O)O)cc1

# Target: T2, Glutathionylspermidine synthase (Crithidia fasciculata, UniProt P90518)
# T2 sequence (P90518 whole entry): T1 sequence (whole entry)
# Experiment: Compound was tested for linear non-competitive inhibitory activity against glutathionylspermidine synthetase.
row,pKi,SMILES
1,4.22,CC(C)C[C@H](NC(=O)[C@@H](N)CCC(=O)O)C(=O)NCP(=O)(O)O
2,3.54,CC(C)[C@H](NC(=O)[C@@H](N)CCC(=O)O)C(=O)NCP(=O)(O)O

# Target: T1, Glutathionylspermidine synthase (Crithidia fasciculata)
# Experiment: Compound was tested for inhibitory activity against glutathionyl spermidine synthetase in the presence of 5 mM glutathione and spermidine.
row,inhibition [%],SMILES
1,15,COC(=O)CCP(=O)(O)C(C)NC(=O)[C@@H](NC(=O)[C@@H](N)CCC(=O)O)C(C)C (some centres undefined)
